Data reported in ChEMBL document CHEMBL1201862, “PubChem BioAssay data set” (2004).
“And” between values parts separate entries of the source, which are not always exact repeats. Equal values may be shown once.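 The compound was tested at five concentrations on cells cultured in 96-well plates, with a 48-hour exposure period. GI50 is the concentration that inhibits growth by half.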 The source made the active and inactive calls. Rule as the data show it: active = GI50 up to about 1.1 µM and inactive = higher. Starred links: 1 amine or outer side, 2 acyl side, 3 side chain; linkers in the order of their positions; H or OH if unused. Non-standard residues stand in square brackets, D forms with d. Residues, ends and D or L forms follow the SMILES beside them. X41 = CSCCCC(N[*:1])C(=O)[*:2]

What was measured:
Assay in all cases: DTP human tumour cell line panel, 48 h
M19-MEL = test system: M19-MEL
RXF 631 = test system: RXF 631
SNB-78 = test system: SNB-78
XF498 = test system: XF498
DMS-273 = test system: DMS-273
KM-20L2 = test system: KM-20L2
LXFL 529 = test system: LXFL 529
BT-549 = test system: BT-549
HOP-18 = test system: HOP-18

In the case of `CCOC(=O)c1ccc(/N=C\c2ccc(N(CCC#N)CCC#N)cc2)cc1`, the GI50 (M19-MEL) is reported as 62.8 µM (inactive), the GI50 (RXF 631) is reported as > 100 µM (inactive) and the GI50 (SNB-78) is reported as > 100 µM (inactive). For the same compound, the GI50 (XF498) was > 100 µM (inactive), the GI50 (DMS-273) was 35.9 µM (inactive) and the GI50 (KM-20L2) was 27.7 µM (inactive). For the same compound, the GI50 (LXFL 529) was 20.8 µM (inactive).
With `S=C(NCc1ccccc1)N/N=C/c1ccccn1` the GI50 (BT-549) was 8.02 µM (inactive).
For `CC(=O)CCNc1ccc(-c2cc(-c3ccc(N(C)C)cc3)nc3ccc4ccccc4c23)cc1`, the GI50 (BT-549) was 35.9 µM (inactive).
For `O=C1CCCC/C1=C/C=C/c1ccccc1`, the GI50 (M19-MEL) was 50.9 µM (inactive), the GI50 (HOP-18) was > 100 µM (inactive) and the GI50 (RXF 631) was 69.2 µM (inactive). The GI50 (XF498) was > 100 µM (inactive), the GI50 (KM-20L2) was 68.1 µM (inactive) and the GI50 (LXFL 529) was 64.9 µM (inactive).
For `NS(=O)(=O)c1nn2c(Br)c(-c3ccccc3)nc2s1`, the GI50 (BT-549) was 2.97 µM (inactive).
In the case of `Cc1ccc2[nH]c(=O)c(-c3cnc(O)nn3)c(O)c2c1`, the GI50 (BT-549) is reported as 80.2 µM (inactive).
For `COC12CCCN1c1ccn(Cc3ccccc3)c(=O)c1C2=O` (stereo not given), the GI50 (BT-549) was > 100 µM (inactive).
In the case of `CCC(=O)OCc1ccc2oc(=O)c(C(=O)Oc3cncc(Cl)c3)cc2c1`, the GI50 (BT-549) is reported as > 100 µM (inactive).
`COC(=O)/C=C1\C(=O)Nc2ccc(Br)cc21` was tested, and the GI50 (BT-549) was 1.69 µM (inactive).
With `C[N+](C)(C)CC1CCC(C[N+](C)(C)C)C1=NO` (stereo not given) the GI50 (M19-MEL) was > 100 µM (inactive), the GI50 (HOP-18) was > 100 µM (inactive) and the GI50 (SNB-78) was > 100 µM (inactive). For the same compound, the GI50 (XF498) was > 100 µM (inactive), the GI50 (KM-20L2) was > 100 µM (inactive) and the GI50 (LXFL 529) was > 100 µM (inactive).
With `CC(=O)OC1C=CC2CCN3C(=O)c4cc5c(cc4[C@H]1C23)OCO5` (stereo not given in full) the GI50 (M19-MEL) was > 100 µM (inactive), the GI50 (SNB-78) was > 100 µM (inactive) and the GI50 (DMS-273) was > 100 µM (inactive). The GI50 (KM-20L2) was > 100 µM (inactive) and the GI50 (LXFL 529) was > 100 µM (inactive).
With `C[C@]12CC[C@H]3[C@@H](CC=C4C[C@@H](N5CCCC5)CC[C@@]43C)[C@@H]1C/C(=C\c1ccc([N+](=O)[O-])cc1)[C@@H]2O` the GI50 (BT-549) was 13.5 µM (inactive).
In the case of `NNC(=O)CS(=O)(=O)Nc1ncccn1`, the GI50 (BT-549) is reported as > 100 µM (inactive).
`O=C(OCCC12CC3CC(CC(C3)C1)C2)c1ccc(NCc2cc(O)ccc2O)cc1` was tested, and the GI50 (BT-549) was 0.241 µM (active).
With `NS(=O)(=O)c1ccc(/N=N/c2ccc(O)c(C(=O)O)c2)cc1` [SALAZOSULFAMIDE] the GI50 (BT-549) was > 100 µM (inactive).
In the case of `CSCCCC(NC(=O)CNC(=O)C1CCCN1C(=O)C(Cc1ccc(O)cc1)NC(=O)C(Cc1ccccc1)NC(=O)C(CCCNC(=N)N)NC(=O)C(CC(=O)O)NC(=O)C1CCCN1C(=O)C(CC(=O)O)NC(=O)C1CCCN1C(=O)C1CCCN1C(=O)CN)C(N)=O` (stereo not given) (H-GPPDPDRFYPG[X41]-NH2; configuration not given here), the GI50 (BT-549) is reported as > 50 µM (inactive).
`Cc1cc2[nH]c3c(C#N)c(-c4ccccc4)c(/C=N/c4ccc(F)cc4)c(=O)n3c2cc1C` was tested, and the GI50 (BT-549) was > 100 µM (inactive).
In the case of `Cc1oc2nc1C(=O)NCc1nc(cs1)C(=O)N[C@H](C(C)C)c1nc(cs1)C(=O)N[C@H]2C`, the GI50 (BT-549) is reported as > 100 µM (inactive).
For `CC(=O)OCC1OC(n2c(=O)n(-c3ccccc3)c(=O)c3ccccc32)C(OC(C)=O)C(OC(C)=O)C1OC(C)=O` (stereo not given), the GI50 (M19-MEL) was > 100 µM (inactive), the GI50 (HOP-18) was > 100 µM (inactive) and the GI50 (RXF 631) was > 100 µM (inactive). For the same compound, the GI50 (SNB-78) was > 100 µM (inactive), the GI50 (DMS-273) was > 100 µM (inactive) and the GI50 (KM-20L2) was > 100 µM (inactive). The GI50 (LXFL 529) was > 100 µM (inactive).
In the case of `O=c1c2ccccc2[nH]c2ccc3c(Cl)n[nH]c3c12`, the GI50 (M19-MEL) is reported as 42.6 µM (inactive), the GI50 (HOP-18) is reported as 33.2 µM (inactive) and the GI50 (RXF 631) is reported as 37.3 µM (inactive). For the same compound, the GI50 (SNB-78) was 55.3 µM (inactive), the GI50 (DMS-273) was 40.3 µM (inactive) and the GI50 (KM-20L2) was 51.9 µM (inactive). The GI50 (LXFL 529) was 51.6 µM (inactive).
For `O=C(O)c1cc(-c2ccncc2)nc2ccccc12`, the GI50 (BT-549) was > 100 µM (inactive).
For `CN(C)CCc1c2c(nc3ccccc13)C(=O)c1cccnc1C2=O`, the GI50 (BT-549) was 0.268 µM (active).
With `CC(C)(C)Cc1cc(O)ccc1O` the GI50 (BT-549) was 93.3 µM (inactive).
With `COCCCN1C(=O)C2c3[nH]c4ccccc4c3C3CCC(C(C)(C)C)CC3C2C1=O` (stereo not given) the GI50 (BT-549) was 20.5 µM (inactive).
With `COc1ccc(C(=O)C(CC2C(=O)CC(C)(C)C(C(=O)C(=O)Nc3c(C)cccc3C)C2=O)c2ccc(OC)cc2)cc1` (stereo not given) the GI50 (BT-549) was > 100 µM (inactive).
In the case of `CCCCCCCCCCCCCCCCCCOCC(C[N+]1(C)CCC(O)CC1)OCC` (stereo not given), the GI50 (M19-MEL) is reported as 3.52 µM (inactive), the GI50 (RXF 631) is reported as 4.93 µM (inactive) and the GI50 (SNB-78) is reported as 3.18 µM (inactive). The GI50 (XF498) was 13.3 µM (inactive), the GI50 (DMS-273) was 2.28 µM (inactive) and the GI50 (LXFL 529) was 2.84 µM (inactive).
In the case of `CC1CCN(C(C)C)P(=S)(Cc2ccccc2)O1` (stereo not given), the GI50 (BT-549) is reported as 28.1 µM (inactive).
In the case of `O=C(Cc1cc(=O)oc2cc(O)ccc12)N/N=C/c1ccc(N(CCCl)CCCl)cc1`, the GI50 (BT-549) is reported as 16.4 µM (inactive).
For `O=C1NC(N2CCOCC2)=N/C1=C\c1ccc(Cl)cc1`, the GI50 (BT-549) was > 100 µM (inactive).
For `COC1=CC(=O)OC(/C=C(C)/C=C/C2=C(C)CCCC2(C)C)C1` (stereo not given), the GI50 (M19-MEL) was > 100 µM (inactive), the GI50 (SNB-78) was > 100 µM (inactive) and the GI50 (DMS-273) was > 100 µM (inactive). For the same compound, the GI50 (KM-20L2) was 36 µM (inactive) and the GI50 (LXFL 529) was > 100 µM (inactive).
In the case of `CC1OC(OC23C(=O)CC(C)(O)CC2(O)C=CC2=C3C(=O)c3ccc(C4CC(OC5CCC(OC6CC(O)C(O)C(C)O6)C(C)O5)C(O)C(C)O4)c(O)c3C2=O)CCC1O` (stereo not given), the GI50 (HOP-18) is reported as 17.5 µM (inactive) and 17.1 µM (inactive), the GI50 (RXF 631) is reported as 12.9 µM (inactive) and 20.1 µM (inactive) and the GI50 (SNB-78) is reported as 17.3 µM (inactive) and 17.7 µM (inactive). The GI50 (XF498) was 18.2 µM (inactive) and 18.9 µM (inactive), the GI50 (KM-20L2) was 19.1 µM (inactive) and 19.7 µM (inactive) and the GI50 (LXFL 529) was 15.4 µM (inactive) and 11.5 µM (inactive).
For `COc1cc(/C=C/C=C2\CCC/C(=C\C=C\c3ccc(O)c(OC)c3)C2=O)ccc1O`, the GI50 (BT-549) was 17.2 µM (inactive).
In the case of `O/N=C1/C(=C/c2ccc(Br)cc2)CCCC1C(NO)c1ccc(Br)cc1` (stereo not given), the GI50 (M19-MEL) is reported as 17 µM (inactive), the GI50 (HOP-18) is reported as 18.9 µM (inactive) and the GI50 (RXF 631) is reported as 14.8 µM (inactive). For the same compound, the GI50 (SNB-78) was 13.4 µM (inactive), the GI50 (DMS-273) was 13.1 µM (inactive) and the GI50 (KM-20L2) was 17.3 µM (inactive). For the same compound, the GI50 (LXFL 529) was 14.8 µM (inactive).
